Laboratory results taken from patent publication US20060079479A1, “Methods of inducing vasodilation” (priority 2004, published 2006).

Tests used:
human subjects = test: Forearm blood flow (FBF) after infusion into forearm arteries of human subjects; assay type: in vivo; conditions: for forearm blood flow (FBF) before infusion (baseline): baseline value before forearm artery infusion; for forearm blood flow (vasodilation) at calculated equimolar concentrations: forearm artery infusion, calculated equimolar 1 μmol/min
Procedure: Blood pressure, heart rate, and respiration were continuously monitored throughout the administration. A physician was present throughout the study and monitored for side effects. At the end of each infusion period, the forearm blood flow (FBF) of each subject was then measured by standard techniques.
A physician was present, and the subject was monitored throughout the infusion, as in Example 1.

[1] = in pharmaceutically acceptable carriers; cited from earlier work
[2] = uptake by nucleoside transporter in red blood cells; cited from earlier work
[3] = forearm artery infusion 0.125 mg/min for 15 minutes

Row | Structure (SMILES) | vasodilation compared with adenosine at calculated equimolar concentrations (human subjects; 1 μmol/min, p<0.02) | forearm blood flow (FBF) before infusion (baseline) (human subjects) [ml/100 ml/min] | forearm blood flow (FBF) at end of infusion (human subjects; [3]) [ml/100 ml/min] | forearm blood flow (FBF) at end of infusion (human subjects; forearm artery infusion 0.5 mg/min for 15 minutes) [ml/100 ml/min] | forearm blood flow (vasodilation) at calculated equimolar concentrations (human subjects) [ml/100 ml/min] | limit of solubility [1] | half-life in blood [2]
1 | Nc1ncnc2c1ncn2[C@@H]1O[C@H](COP(=O)(O)O)[C@@H](O)[C@H]1O [AMP, Adenosine 5′-monophosphate] | significantly greater vasodilation | 3.8±0.5 | 16.3±1.6 | 20.7±1.8 | 19.4±1.8 | approximately 400 mg/ml | 
2 | Nc1ncnc2c1ncn2[C@@H]1O[C@H](CO)[C@@H](O)[C@H]1O [adenosine, reference compound] |  | 3.1±0.2 | 14.2±2.0 |  | 15.6±1.9 | approximately 5 mg/ml | less than 1 second
